Data taken from patent US7868185B2, “Shp-2 inhibitors and pharmaceutical compositions comprising them” (Max-Delbruck-Centrum fur Molekulare Medizin, priority 2005, dated 2011).

Experiments:
[1] = target: Met (Homo sapiens, UniProt P08581); conditions: in vitro; cited from earlier work
[2] = system: HGF induced scattering; conditions: in vitro; cited from earlier work
[3] = earlier experiments; cited from earlier work
[4] = system: phosphorylation of MAP kinases Erk1 and Erk2; experiment: HGF/SF phosphorylation assay (MDCK); type: cell-based, canine; conditions: MDCK cells, HGF/SF stimulation, 5, 10, 20 μM, dose dependant
Method: MDCK cells are seeded at 0.15×10E6 cells/ml (1 ml/well) in a 12 well microtiter plate in DMEM/10% FBS and incubated over night at 37° C./5% CO2. Medium is exchanged against DMEM/1% FBS plus 5, 10 or 20 μM (final concentration) compound, and the cells are incubated for 16 h at 37° C./5% CO2. Medium is exchanged against DMEM (without serum) plus 5, 10 or 20 μM compound (final DMSO concentration less than 1%), and the cells are incubated for 2 h at 37° C./5% CO2. Medium is exchanged against DMEM (without serum) plus 5, 10 or 20 μM compound (final DMSO concentration less than 1%) plus 10 ng/ml HGF/SF, and the cells are incubated for 6 h at 37° C./5% CO2. […] Proteins on the blot are analyzed by antibodies against p42/p44 MAP kinase (Erk1/Erk2) (Cell Signaling Technology, Inc., Beverly, USA) and phospho-Erk1/Erk2 (Cell Signaling Technology, Inc., Beverly, USA).
The binding of the antibodies to the MAP kinases on the nitrocellulose was detected by incubation with secondary goat-anti-rabbit-antibodies coupled to horse radish peroxidase (Jackson ImmunoResearch Laboratories, Soham, UK) and subsequent reaction with ECL reagents (Western Lightning™, PerkinElmer Life Sciences, Inc. Boston, USA) and X-ray film exposure (X-OMAT™, Kodak GmbH, Stuttgart, Germany). […]

[5] = system: phosphorylation of MAP kinases Erk1 and Erk2; experiment: HGF/SF phosphorylation assay (NCI-H661); type: cell-based, human; conditions: NCI-H661 cells (N58S in SHP2/PTPN11), HGF/SF stimulation, dose dependant
Method: Typically, human tumor cells (e.g. NCI-H661) were seeded at 0.25×10E6 cells/ml (1 ml/well) in a 6 well microtiter plate in RPMI/10% FBS and incubated over night at 37° C./5% CO2. Medium is exchanged against RPMI/1% FBS plus 5, 10 or 20 μM (final concentration) compound, and the cells were incubated for 20 h at 37° C./5% CO2. Medium was exchanged against RPMI (without serum) plus 5, 10 or 20 μM compound (final DMSO concentration less than 1%), and the cells were incubated for 4 h at 37° C./5% CO2. Medium was exchanged against DMEM (without serum) plus 5, 10 or 20 μM compound (final DMSO concentration less than 1%) plus 10 ng/ml HGF/SF, and the cells were incubated for 4 h at 37° C./5% CO2. […] Proteins on the blot were analyzed by antibodies against p42/p44 MAP kinase (Erk1/Erk2) (Cell Signaling Technology, Inc., Beverly, USA) and phospho-Erk1/Erk2 (Cell Signaling, Technology, Inc., Beverly, USA). The binding of the antibodies to the MAP kinases on the nitrocellulose was detected by incubation with secondary goat-anti-rabbit-antibodies coupled to horse radish peroxidase (Jackson ImmunoResearch Laboratories, Soham, UK) and subsequent reaction with ECL reagents (Western Lightning™, PerkinElmer Life Sciences, Inc. Boston, USA) and X-ray film exposure (X-OMAT™, Kodak GmbH, Stuttgart, Germany).

Met, sequence (P08581 25-1390): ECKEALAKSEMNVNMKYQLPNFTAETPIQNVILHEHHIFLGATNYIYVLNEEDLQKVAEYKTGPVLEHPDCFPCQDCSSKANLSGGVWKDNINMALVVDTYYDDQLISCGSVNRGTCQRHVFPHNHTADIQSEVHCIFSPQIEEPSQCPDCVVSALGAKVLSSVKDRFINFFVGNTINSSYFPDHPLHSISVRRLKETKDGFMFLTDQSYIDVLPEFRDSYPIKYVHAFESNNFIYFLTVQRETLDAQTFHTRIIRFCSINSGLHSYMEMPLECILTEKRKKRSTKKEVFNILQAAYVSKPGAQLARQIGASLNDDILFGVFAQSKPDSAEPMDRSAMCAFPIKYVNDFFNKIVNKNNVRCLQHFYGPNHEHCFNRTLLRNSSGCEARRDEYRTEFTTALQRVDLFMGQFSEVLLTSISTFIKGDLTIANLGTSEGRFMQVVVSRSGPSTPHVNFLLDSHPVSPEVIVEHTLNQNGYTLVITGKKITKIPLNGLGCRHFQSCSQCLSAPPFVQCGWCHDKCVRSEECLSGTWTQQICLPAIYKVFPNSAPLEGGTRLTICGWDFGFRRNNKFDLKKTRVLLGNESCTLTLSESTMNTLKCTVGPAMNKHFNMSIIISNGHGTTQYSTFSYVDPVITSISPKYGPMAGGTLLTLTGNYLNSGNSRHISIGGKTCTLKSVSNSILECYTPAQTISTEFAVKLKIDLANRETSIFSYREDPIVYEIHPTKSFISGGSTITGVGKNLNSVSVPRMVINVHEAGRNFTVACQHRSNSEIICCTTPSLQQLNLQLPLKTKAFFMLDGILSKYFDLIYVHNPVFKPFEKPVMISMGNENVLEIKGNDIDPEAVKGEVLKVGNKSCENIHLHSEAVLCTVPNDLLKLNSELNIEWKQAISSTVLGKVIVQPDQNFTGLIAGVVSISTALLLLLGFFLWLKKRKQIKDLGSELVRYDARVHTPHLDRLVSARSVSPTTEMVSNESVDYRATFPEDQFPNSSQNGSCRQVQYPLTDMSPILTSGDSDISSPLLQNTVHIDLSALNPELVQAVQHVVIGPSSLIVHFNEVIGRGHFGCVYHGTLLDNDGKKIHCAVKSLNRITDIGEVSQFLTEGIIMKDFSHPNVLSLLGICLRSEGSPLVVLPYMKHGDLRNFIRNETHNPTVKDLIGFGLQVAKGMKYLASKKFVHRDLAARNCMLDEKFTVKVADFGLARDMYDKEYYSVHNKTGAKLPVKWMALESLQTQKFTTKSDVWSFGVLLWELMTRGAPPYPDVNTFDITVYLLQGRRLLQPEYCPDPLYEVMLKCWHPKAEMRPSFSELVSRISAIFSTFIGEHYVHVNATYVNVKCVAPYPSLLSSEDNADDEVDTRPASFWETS

Row | SMILES | Met autophosphorylation [1] | HGF induced scattering [2] | antitumor activity in vivo [3] | sustained MAP kinase phosphorylation (P-Erk1/Erk1) [4] | sustained MAP kinase phosphorylation [5]
1 | COC(=O)[C@@]1(O)C[C@H]2O[C@]1(C)n1c3ccccc3c3c4c(c5c6ccccc6n2c5c31)C(=O)NC4 [Compound K252a] | inhibits | inhibits | no antitumor activity | – | –
2 | O=C1/C(=N\Nc2ccc(S(=O)(=O)O)cc2)C(c2ccc([N+](=O)[O-])cc2)=NN1c1ccccc1 [II-1, 4-(2-(3-(4-nitrophenyl)-5-oxo-1-phenyl-1,5-dihydro-4H-pyrazol-4-ylidene)hydrazino)-benzenesulfonic acid] | – | – | – | inhibited | inhibited
